Data published in ChEMBL document CHEMBL3124802, “Scrutinizing the scaffolds of marine biosynthetics from different source organisms: Gram-negative cultured bacterial products enter center stage” (J Nat Prod, 2014).
In brackets after ≈: the same amount, converted by molar mass. Where a SMILES comes first, the peptide text is derived from it. Bridges are numbered along the chain shown (N, C = ends). The star is where a group is joined. X1 = O=C(/C=C/C=C/C=C/C=C/c1ccc(O)c(Br)c1)*

What was measured:
[1] = Antioxidant activity assessed as singlet oxygen quenching activity; assay type: functional
[2] = Cytotoxicity against sea urchin eggs; set-up: species or system Egg; conditions: strongylocentrotus intermedius, read-out: MIC
Candida albicans = experiment: Antimicrobial activity against Candida albicans; assay type: functional

Row | Structure (SMILES) | MCC [2] | further results
1 | CC(/C=C/C=C(C)/C=C/C=C(\C)C(=O)O)=C\C=C\C=C(C)\C=C\C=C(C)\C=C\C=C(/C)C(=O)O[C@@H]1OC[C@@H](O)[C@H](O)[C@H]1OC(=O)CCCCCCCCCCC(C)C | – | IC50 [1]: 5.1 µM
2 | CC[C@@H](C)[C@@H]1NC(=O)[C@H](CC(N)=O)NC(=O)[C@H](CC(N)=O)NC(=O)[C@H](C(C)C)NC(=O)[C@@H](NC(=O)/C=C/C=C/C=C/C=C/c2ccc(O)c(Br)c2)[C@@H](C)OC1=O | 40 µg/mL | –
3 | CC[C@@H](C)[C@@H]1NC(=O)[C@H](CC(N)=O)NC(=O)[C@H](CC(N)=O)NC(=O)[C@H](C(C)C)NC(=O)[C@@H](NC(=O)CCCCCCCCc2ccc(O)cc2)[C@@H](C)OC1=O | 40 µg/mL | –
4 | CC[C@@H](C)[C@@H]1NC(=O)[C@H](CC(N)=O)NC(=O)[C@H](CC(N)=O)NC(=O)[C@H](C(C)C)NC(=O)[C@@H](NC(=O)CCCCCCCCc2ccc(O)c(Br)c2)[C@@H](C)OC1=O | 40 µg/mL | –
5 | CC[C@@H](C)[C@@H]1NC(=O)[C@H](CC(N)=O)NC(=O)[C@H](CC(N)=O)NC(=O)[C@H](C(C)C)NC(=O)[C@@H](NC(=O)/C=C/CCCCCCc2ccc(O)c(Br)c2)[C@@H](C)OC1=O | 40 µg/mL | –
6 | CC(C)C[C@@H]1NC(=O)[C@H](CC(N)=O)NC(=O)[C@H](CC(N)=O)NC(=O)[C@H](C(C)C)NC(=O)[C@@H](NC(=O)/C=C/C=C/C=C/C=C/c2ccc(O)c(Br)c2)[C@@H](C)OC1=O (X1-TVNNL; ester 1-C) | 40 µg/mL | –
7 | C/C1=C\[C@H](C)C[C@H](C)OC(=O)C[C@H](c2ccc(O)cc2)NC(=O)[C@@H](Cc2c(Br)[nH]c3ccccc23)N(C)C(=O)[C@H](C)NC(=O)[C@@H](C)C1 [JASPAMIDE] | – | MIC (Candida albicans): 25 µg/mL (≈ 35.2 µM)
